According to patent publication US20220016080A1, “COMPOUNDS THAT SELECTIVELY AND EFFECTIVELY INHIBIT HAKAI-MEDIATED UBIQUITINATION, AS ANTI-CANCER DRUGS” (FUNDACIÓN PROFESOR NOVOA SANTOS, priority 2018, published 2022):

Key:
[1] = test system: HT-29 colon tumour cell line; test: MTT cell viability assay, HT29; format: cell-based; details: 72 h, analogues at 50-500 μM
Procedure: (§1) For cytotoxicity assays, 1×10^4 cells were seeded per well into a 96-well plate. After 24 h cells were treated with the indicated inhibitors for 72 h and a MTT colorimetric cell viability assay was performed following manufacturer's instructions (Sigma Aldrich, St Louis, Mo.). Absorbance was measured at 570 and 630 nm using a Multiskan Plus Reader (Nanoquant Infinite M200 Tecan Trading AG, Switzerland). Dose-response curves were designed with Graph Pad Prism Software and the half-maximal inhibitory concentration (IC50) values were calculated. Represented data are the mean±SEM of at least three independent experiments with six replicates per condition.

[2] = test system: LoVo colon tumour cell line; test: MTT cell viability assay, LoVo; format: cell-based; details: 72 h
Procedure: as §1

[3] = test system: Hakai-transformed MDCK cells; test: Phase-contrast cell phenotype, Hakai-MDCK; format: cell-based
Procedure: MDCK, HEK293T, HepG2, MCF7 and ACHN cells were cultured in Dulbecco's Modified Eagles Medium (DMEM). MDCK stably expressing Hakai cells (Hakai-MDCK) were previously reported and were growth in DMEM with G418 (800 μg/ml). […] LoVo and PC-3 cells were cultured in F-12K Medium (Kaighn's Modification of Ham's F-12 Medium) and HT-29 cells in McCoy's 5a Medium Modified. 5637 cells were cultured in RPMI medium. All culture media were supplemented with 1% penicillin/streptomycin and 10% of heat-inactivated fetal bovine serum (FBS) at 37° C. in a humidified incubator with 5% CO2. Cells were monthly tested for mycoplasma contamination and used only for 1-3 months after defrosted. LoVo and HT29 cells were authenticated with the StemElite ID system (Promega). For phase-contrast images, culture cells were photographed with a Nikon Eclipse-TI microscope.

LoVo cells [4] = test: Western blotting of EMT markers, LoVo; format: cell-based; details: 48 h
Procedure: For western blot analysis, cells were treated with the indicated inhibitors for 48 h and the whole cell extracts were obtained as described previously. Twenty micrograms of lysates were resolved on a 10% polyacrilamide SDS-PAGE followed by western blot analysis performed as previously described. For immunofluorescence assays cells were grown for 24 h on glass coverslips and treated with the indicated inhibitors for 48 h. Cells were fixed with 4% PFA for 15 min, permeabilized with 0.5% […] and incubated with E-cadherin antibody for 2 h. Coverslips were incubated with fluorescein-tagged secondary antibody (Dakopatts, Sweden) for […]. Finally coverslips were mounted with ProLong Gold antifade reagent (LifeTech, UK) and images were taken in epifluorescence microscope (Olympus) using 40× objective.

LoVo cells [5] = test: BrdU proliferation assay, LoVo; format: cell-based; details: 48 h
Procedure: (§2) For BrdU assays, 1×10^4 of indicated cells were plated per well into a 96-well plate. After 24 h, cells were treated with the indicated inhibitors for 48 h. Three independent experiments were plated with six replicates per each condition. Cells were treated with […] BrdU for 2 h. BrdU incorporation into newly synthesized DNA was measured using a cell proliferation colorimetric immunoassay kit according to the manufacturer's instructions (Roche, Switzerland). Results are expressed as mean±S.D. Results are represented as percentage of positive cells (mean±S.D) of three independent experiments.

[6] = test system: bladder cancer 5637 cells; test: BrdU proliferation assay, 5637; format: cell-based, human; details: 48 h
Procedure: as §2

liver cancer HepG2 cells = test: BrdU proliferation assay, HepG2; format: cell-based, human; details: 48 h
Procedure: as §2

renal cancer ACHN cells = test: BrdU proliferation assay, ACHN; format: cell-based, human; details: 48 h
Procedure: as §2

Hakai-MDCK cells = test: Invasion assay, Hakai-MDCK; format: cell-based; details: treated 48 h before seeding
Procedure: For invasion assays, cells were treated with Hakin-1 or DMSO as vehicle for 48 h using 1% FBS during the last 24 hours. 3×10^5 MDCK, MDCK-Hakai or LoVo cells were seeded in a cell invasion chamber (Cell invasion assaykit, Chemicon International) containing medium with 2% FBS. After 72 hours for MDCK and MDCK-Hakai Invasive and 16 h for LoVo cells, invasive cells invaded that reach the lower chamber containing 30% FBS were fixed and stained with crystal violet (Sigma Aldrich, St Louis, Mo.) following the manufacturer's specifications. For migration assays, HT29 cells were cultured with Hakin-1 or DMSO as vehicle for 48 h, using medium without serum the last 24 h. In the cell migration chamber were seeded 3×10^5 HT29 cells (Cell migration kit, Millipore, Bedford, Mass.) containing medium without serum. After 16 h, migrated cells in the lower chamber containing serum with 30% FBS were stained with crystal violet and counted following the manufacturer's specifications. For both invasion and migration assays cells were counted in five fields photographed with an Olympus microscope using a 20× objective, experiments were performed in triplicates for each condition and the assays were repeated at least three times. Results are expressed as mean±SD.

## O=C(O)c1ccc(-n2nnnc2SCC(=O)c2ccc([N+](=O)[O-])cc2)cc1 [Hakin-1, 4-(5-{[2-(4-nitrophenyl)-2-oxoethyl]thiol}-1H-tetrazol-1-yl)benzoic acid]
[1]
  cytotoxicity effect (cell viability, MTT): important inhibitory response
[2]
  cytotoxicity effect (cell viability, MTT): important inhibitory response
[3]
  mesenchymal phenotype (phase contrast): induction of an epithelial phenotype
LoVo cells [4]
  EMT markers (western blotting): confirmed these results
LoVo cells [5]
  cell proliferation (BrdU): reduced cell proliferation
[6]
  cell proliferation (BrdU): inhibits cell proliferation
Liver cancer HepG2 cells
  cell proliferation (BrdU): inhibits cell proliferation
Renal cancer ACHN cells
  cell proliferation (BrdU): inhibits cell proliferation
Hakai-MDCK cells
  cell invasion: decreased cell invasion
